From patent US20250171432A1, “COMPOUNDS AND METHODS OF USE” (Tango Therapeutics, Inc., priority 2022, published 2025)
Values belong to the molecule of their own block, whether it stands above or below them.

Tests used:
Assay type in all cases: cell-based
[1] = system: SDMA (PRMT5 activity) in HAP1 MTAP-intact cell line; assay: SDMA in-cell western assay, HAP1 MTAP-intact; conditions: Homo sapiens, HAP1, 24 h, SDMA in-cell western, HAP1 MTAP-intact cells, 24 hours compound incubation
[2] = system: SDMA (PRMT5 activity) in HAP1 MTAP-deleted cell line; assay: SDMA in-cell western assay, HAP1 MTAP-deleted; conditions: for IC50 / IC90: Homo sapiens, SDMA in-cell western, HAP1 MTAP-deleted cells, 24 hours compound incubation; for Hap1 MTAP intact/deleted ratio: ratio of SDMA IC50 in HAP1 MTAP-intact to HAP1 MTAP-deleted cell line
[3] = system: HAP1 MTAP-deleted cell line; assay: Viability assay (CellTiter-Glo), HAP1 MTAP-deleted; conditions: Homo sapiens, 168 h, HAP1 MTAP-deleted cells, 7 days
Method in brief: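 HAP1 MTAP-deleted and MTAP-intact cells seeded, then dosed next day (n=3, 0.2% DMSO) and grown 7 days. Viability by CellTiter-Glo luminescence, expressed as % of DMSO control per cell line.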

SMILES: COc1ncc(NC(=O)C(=O)N2C[C@@H](C)CC[C@@H]2c2ccc3sc(CC4CCN(C)CC4)nc3c2)cc1C(N)=O [Compound 20, 2-methoxy-5-(2-((2R,5S)-5-methyl-2-(2-((1-methylpiperidin-4-yl)methyl)benzo[d]thiazol-5-yl)piperidin-1-yl)-2-oxoacetamido)nicotinamide]
IC50 [1]: > 50 nM
IC50 [2]: < 5 nM
IC90 [2]: < 75 nM
Hap1 MTAP intact/deleted ratio [2]: A (“A” indicates an IC50 ratio greater than or equal to 30 fold)
IC50 [3]: < 100 nM

SMILES: COc1ncc(NC(=O)C(=O)N2C[C@@H](C)CC[C@@H]2c2ccc3sc(CC4(C)CCN(C)CC4)nc3c2)cc1C(N)=O [Compound 22, 5-(2-((2R,5S)-2-(2-((1,4-dimethylpiperidin-4-yl)methyl)benzo[d]thiazol-5-yl)-5-methylpiperidin-1-yl)-2-oxoacetamido)-2-methoxynicotinamide]
IC50 [1]: > 50 nM
IC50 [2]: < 5 nM
IC90 [2]: < 75 nM
Hap1 MTAP intact/deleted ratio [2]: B (“B” indicates an IC50 ratio greater than or equal to 15 fold but lower than 30 fold)
IC50 [3]: < 100 nM

SMILES: COc1ncc(NC(=O)C(=O)N2C[C@@H](C)CC[C@@H]2c2ccc3sc([C@@H](C)N(C)C)nc3c2)cc1C(N)=O [Compound 25, 2-methoxy-5-[[2-oxo-2-[(2R,5S)-5-methyl-2-[2-[(1R)-1-(dimethylamino)ethyl]-1,3-benzothiazol-5-yl]-1-piperidyl]acetyl]amino]pyridine-3-carboxamide]
IC50 [1]: > 50 nM
IC50 [2]: 5 to 50 nM
IC90 [2]: 75 to 125 nM
Hap1 MTAP intact/deleted ratio [2]: A (“A” indicates an IC50 ratio greater than or equal to 30 fold)
IC50 [3]: < 100 nM

SMILES: COc1ncc(NC(=O)C(=O)N2C[C@@H](C)CC[C@@H]2c2cccc(OC[C@@H]3CCCN3C)c2)cc1C(N)=O [Compound 26, 2-methoxy-5-(2-((2R,5S)-5-methyl-2-(3-(((S)-1-methylpyrrolidin-2-yl)methoxy)phenyl)piperidin-1-yl)-2-oxoacetamido)nicotinamide]
IC50 [1]: > 50 nM
IC50 [2]: 5 to 50 nM
IC90 [2]: > 125 nM
Hap1 MTAP intact/deleted ratio [2]: A (“A” indicates an IC50 ratio greater than or equal to 30 fold)
IC50 [3]: 100 to 1000 nM

SMILES: COc1ncc(NC(=O)C(=O)N2CCCC[C@@H]2c2ccc3sc(C4CCN(C)CC4)nc3c2)cc1C(N)=O [Compound 29, 2-methoxy-5-(2-(2-(2-(1-methylpiperidin-4-yl)benzo[d]thiazol-5-yl)piperidin-1-yl)-2-oxoacetamido)nicotinamide]
IC50 [1]: > 50 nM
IC50 [2]: 5 to 50 nM
IC90 [2]: > 125 nM
Hap1 MTAP intact/deleted ratio [2]: A (“A” indicates an IC50 ratio greater than or equal to 30 fold)
IC50 [3]: 100 to 1000 nM

SMILES: CCc1cc(NC(=O)C(=O)N2C[C@@H](C)CC[C@@H]2c2ccc3c(c2)OC2(CCN(C)CC2)C3)cnc1N [Compound 31, N-(6-amino-5-ethylpyridin-3-yl)-2-((2R,5S)-5-methyl-2-(1′-methyl-3H-spiro[benzofuran-2,4′-piperidin]-6-yl)piperidin-1-yl)-2-oxoacetamide]
IC50 [1]: > 50 nM
IC50 [2]: 5 to 50 nM
IC90 [2]: > 125 nM
Hap1 MTAP intact/deleted ratio [2]: A (“A” indicates an IC50 ratio greater than or equal to 30 fold)
IC50 [3]: 100 to 1000 nM

SMILES: CCc1cc(NC(=O)C(=O)N2C[C@@H](C)CC[C@@H]2c2ccc3ccc(C#N)nc3c2)cnc1N [Compound 32, N-(6-amino-5-ethylpyridin-3-yl)-2-((2R,5S)-2-(2-cyanoquinolin-7-yl)-5-methylpiperidin-1-yl)-2-oxoacetamide]
IC50 [1]: > 50 nM
IC50 [2]: 5 to 50 nM
IC90 [2]: > 125 nM
Hap1 MTAP intact/deleted ratio [2]: A (“A” indicates an IC50 ratio greater than or equal to 30 fold)
IC50 [3]: 100 to 1000 nM

SMILES: COc1ncc(NC(=O)C(=O)N2C[C@@H](C)CC[C@@H]2c2cccc(OC[C@H](C)N(C)C)c2)cc1C(N)=O [Compound 37, 5-(2-((2R,5S)-2-(3-((S)-2-(dimethylamino)propoxy)phenyl)-5-methylpiperidin-1-yl)-2-oxoacetamido)-2-methoxynicotinamide]
IC50 [1]: > 50 nM
IC50 [2]: 5 to 50 nM
IC90 [2]: 75 to 125 nM
Hap1 MTAP intact/deleted ratio [2]: A (“A” indicates an IC50 ratio greater than or equal to 30 fold)
IC50 [3]: < 100 nM

SMILES: CCc1cc(NC(=O)C(=O)N2C[C@@H](C)CC[C@@H]2c2ccc3cn(CCN(C)C)nc3c2)cnc1N [Compound 38, N-(6-amino-5-ethyl-3-pyridyl)-2-oxo-2-[(2R,5S)-2-[2-[2-(dimethylamino)ethyl]indazol-6-yl]-5-methyl-1-piperidyl]acetamide]
IC50 [1]: > 50 nM
IC50 [2]: < 5 nM
IC90 [2]: < 75 nM
Hap1 MTAP intact/deleted ratio [2]: B (“B” indicates an IC50 ratio greater than or equal to 15 fold but lower than 30 fold)
IC50 [3]: < 100 nM

Further lines, with some results ahead:

IC50 [1]: > 50 nM
IC50 [2]: 5 to 50 nM
IC90 [2]: < 75 nM
SMILES: COc1ncc(NC(=O)C(=O)N2C[C@@H](C)CC[C@@H]2c2ccc3cn(CCN(C)C)nc3c2)cc1C(N)=O [Compound 7, 2-methoxy-5-[[2-oxo-2-[(2R,5S)-2-[2-[2-(dimethylamino)ethyl]indazol-6-yl]-5-methyl-1-piperidyl]acetyl]amino]pyridine-3-carboxamide]
Hap1 MTAP intact/deleted ratio [2]: A (“A” indicates an IC50 ratio greater than or equal to 30 fold)
IC50 [3]: < 100 nM

IC50 [1]: > 50 nM
IC50 [2]: < 5 nM
IC90 [2]: < 75 nM
SMILES: C[C@H]1CC[C@H](c2ccc3sc(C4CCN(C)CC4)nc3c2)N(C(=O)C(=O)Nc2cnc(F)c(C(N)=O)c2)C1 [Compound 8, 2-fluoro-5-(2-((2R,5S)-5-methyl-2-(2-(1-methylpiperidin-4-yl)benzo[d]thiazol-5-yl)piperidin-1-yl)-2-oxoacetamido)nicotinamide]
Hap1 MTAP intact/deleted ratio [2]: B (“B” indicates an IC50 ratio greater than or equal to 15 fold but lower than 30 fold)
IC50 [3]: < 100 nM

IC50 [1]: > 50 nM
IC50 [2]: < 5 nM
IC90 [2]: < 75 nM
SMILES: CCc1cc(NC(=O)C(=O)N2C[C@@H](C)CC[C@@H]2c2cccc(N3CCC(N(C)C)CC3)c2)cnc1N [Compound 9, N-(6-amino-5-ethylpyridin-3-yl)-2-((2R,5S)-2-(3-(4-(dimethylamino)piperidin-1-yl)phenyl)-5-methylpiperidin-1-yl)-2-oxoacetamide]
Hap1 MTAP intact/deleted ratio [2]: A (“A” indicates an IC50 ratio greater than or equal to 30 fold)
IC50 [3]: < 100 nM

IC50 [1]: > 50 nM
IC50 [2]: < 5 nM
IC90 [2]: < 75 nM
SMILES: COc1ncc(NC(=O)C(=O)N2C[C@@H](C)CC[C@@H]2c2ccc3sc([C@H](C)CN(C)C)nc3c2)cc1C(N)=O [Compound 11, 2-methoxy-5-[[2-oxo-2-[(2R,5S)-5-methyl-2-[2-[(^1S)-2-(dimethylamino)-1-methyl-ethyl]-1,3-benzothiazol-5-yl]-1-piperidyl]acetyl]amino]pyridine-3-carboxamide]
Hap1 MTAP intact/deleted ratio [2]: A (“A” indicates an IC50 ratio greater than or equal to 30 fold)
IC50 [3]: < 100 nM

IC50 [1]: 5 to 50 nM
IC50 [2]: < 5 nM
IC90 [2]: < 75 nM
SMILES: COc1ncc(NC(=O)C(=O)N2C[C@@H](C)CC[C@@H]2c2ccc3sc([C@@H](C)CN(C)C)nc3c2)cc1C(N)=O [Compound 14, 2-methoxy-5-[[2-oxo-2-[(2R,5S)-5-methyl-2-[2-[(^1R)-2-(dimethylamino)-1-methyl-ethyl]-1,3-benzothiazol-5-yl]-1-piperidyl]acetyl]amino]pyridine-3-carboxamide]
Hap1 MTAP intact/deleted ratio [2]: B (“B” indicates an IC50 ratio greater than or equal to 15 fold but lower than 30 fold)
IC50 [3]: < 100 nM

IC50 [1]: > 50 nM
IC50 [2]: < 5 nM
IC90 [2]: < 75 nM
SMILES: COc1ncc(NC(=O)C(=O)N2C[C@@H](C)CC[C@@H]2c2ccc3sc([C@H](C)CN4CCCC4)nc3c2)cc1C(N)=O [Compound 15, 2-methoxy-5-[[2-oxo-2-[(2R,5S)-5-methyl-2-[2-[(1R)-1-methyl-2-pyrrolidin-1-yl-ethyl]-1,3-benzothiazol-5-yl]-1-piperidyl]acetyl]amino]pyridine-3-carboxamide]
Hap1 MTAP intact/deleted ratio [2]: B (“B” indicates an IC50 ratio greater than or equal to 15 fold but lower than 30 fold)
IC50 [3]: < 100 nM

IC50 [1]: > 50 nM
IC50 [2]: 5 to 50 nM
IC90 [2]: < 75 nM
SMILES: CCc1cc(NC(=O)C(=O)N2C[C@@H](C)CC[C@@H]2c2ccc3cn(C4CCOCC4)nc3c2)cnc1N [Compound 17, N-(6-amino-5-ethyl-3-pyridyl)-2-oxo-2-[(2R,5S)-5-methyl-2-(2-tetrahydropyran-4-ylindazol-6-yl)-1-piperidyl]acetamide]
Hap1 MTAP intact/deleted ratio [2]: A (“A” indicates an IC50 ratio greater than or equal to 30 fold)
IC50 [3]: < 100 nM

IC50 [1]: > 50 nM
IC50 [2]: < 5 nM
IC90 [2]: < 75 nM
SMILES: CCc1cc(NC(=O)C(=O)N2C[C@@H](C)CC[C@@H]2c2ccc3c(C)n(C4CCN(C)CC4)nc3c2)cnc1N [Compound 19, N-(6-amino-5-ethyl-3-pyridyl)-2-oxo-2-[(2R,5S)-5-methyl-2-[3-methyl-2-(1-methyl-4-piperidyl)indazol-6-yl]-1-piperidyl]acetamide]
Hap1 MTAP intact/deleted ratio [2]: A (“A” indicates an IC50 ratio greater than or equal to 30 fold)
IC50 [3]: < 100 nM

IC50 [1]: 5 to 50 nM
IC50 [2]: < 5 nM
IC90 [2]: < 75 nM
SMILES: CCc1cc(NC(=O)C(=O)N2C[C@@H](C)CC[C@@H]2c2ccc3sc(C4=CCN(C)CC4)nc3c2)cnc1N [Compound 28, N-(6-amino-5-ethylpyridin-3-yl)-2-((2R,5S)-5-methyl-2-(2-(1-methyl-1,2,3,6-tetrahydropyridin-4-yl)benzo[d]thiazol-5-yl)piperidin-1-yl)-2-oxoacetamide]
Hap1 MTAP intact/deleted ratio [2]: A (“A” indicates an IC50 ratio greater than or equal to 30 fold)
IC50 [3]: < 100 nM
